Measured values as given in US8748461B2, “Metalloenzyme inhibitor compounds” (Viamet Pharmaceuticals, Inc., priority 2011, dated 2014).
In brackets after ≈: the same amount, converted by molar mass.

Tested on: Septoria tritici (ATCC 26517)
Assay: Minimum Inhibitory Concentration (MIC) vs. Septoria tritici
Assay type: cell-based
Settings: Zymoseptoria tritici, ATCC26517, 168 h; 50% reduction in growth of S. tritici; 22° C., seven days; read-out: Septoria Rating (MIC)
Method: C. Minimum Inhibitory Concentration (MIC) vs. Septoria tritici Compounds were assessed for their ability to inhibit the growth of a common strain of the fungal plant pathogen Septoria tritici (ATCC 26517) using a procedure based on a Clinical and Laboratory Standards Institute (CLSI) microdilution assay protocol for filamentous fungi. Stock solutions of the test compounds and standards were prepared in DMSO at 6400 μg/mL. Each stock solution was used to prepare a 2-fold dilution series ranging from 16 to 0.016 μg/mL (total of 11 compound concentrations) in RPMI-1640 (Roswell Park Memorial Institute) medium containing 3-(N-morpholino)propanesulfonic acid (MOPS) buffer and 2% DMSO. A 100 μL aliquot of the dilutions was added to columns 1 (16 μg/mL compound) through 11 (0.016 μg/mL compound) of a 96-well microtiter plate. This format was replicated in a second row of the microtiter plate. Thus, each microtiter plate could include 11 concentrations of four test or control compounds replicated twice. A 100 μL aliquot of RPMI-1640/MOPS/2% DMSO medium was added to column 12 (no compound control) of the microtiter plate. A fresh culture of S. tritici was used to prepare a solution of approximately 5×10^4 colony-forming units per milliliter (cfu/mL) in RPMI/MOPS medium without DMSO. A 100 μL aliquot of this solution was added to all 96 wells in the microtiter plate. […] The assay plates were incubated at 22° C. for seven days in the dark without shaking. […] In each case of Table 3, the Septoria rating scale is as follows: […]

MIC | SMILES
> 4 µg/mL | N#Cc1cccc(COc2ccc(C(F)(F)C(O)(Cn3ncnn3)c3ccc(F)cc3F)nc2)c1 (centres unmarked) [Compound 53, 3-(((6-(2-(2,4-Difluorophenyl)-1,1-difluoro-2-hydroxy-3-(2H-tetrazol-2-yl)propyl)pyridin-3-yl)oxy)methyl)benzonitrile]
≤ 0.5 µg/mL | OC(Cn1cnnn1)(c1ccc(F)cc1F)C(F)(F)c1ccc(Oc2ccc3ccccc3n2)cn1 (centres unmarked) [Compound 108, 2-(2,4-difluorophenyl)-1,1-difluoro-1-(5-(quinolin-2-yloxy)pyridin-2-yl)-3-(1H-tetrazol-1-yl)propan-2-ol]
1.5 to 4 µg/mL (≈ 2.99 to 7.99 µM) | N#Cc1ccc(COc2ccc(C(F)(F)C(O)(Cn3ncnn3)c3ccc(Cl)cc3F)nc2)cc1 (centres unmarked) [Compound 56, 4-(((6-(2-(4-Chloro-2-fluorophenyl)-1,1-difluoro-2-hydroxy-3-(2H-tetrazol-2-yl)propyl)pyridin-3-yl)oxy)methyl)benzonitrile]
≤ 0.5 µg/mL | N#Cc1ccc(Oc2ccc(C(F)(F)C(O)(Cn3cnnn3)c3ccc(F)cc3F)nc2)cn1 (centres unmarked) [Compound 112, 5-((6-(2-(2,4-difluorophenyl)-1,1-difluoro-2-hydroxy-3-(1H-tetrazol-1-yl)propyl)pyridin-3-yl)oxy)picolinonitrile]
> 4 µg/mL | N#Cc1cc(COc2ccc(C(F)(F)C(O)(Cn3ncnn3)c3ccc(F)cc3F)nc2)ccc1F (centres unmarked) [Compound 66, 5-(((6-(2-(2,4-Difluorophenyl)-1,1-difluoro-2-hydroxy-3-(2H-tetrazol-2-yl)propyl)pyridin-3-yl)oxy)methyl)-2-fluorobenzonitrile]
≤ 0.5 µg/mL | CC#CCOc1ccc(C(F)(F)C(O)(Cn2cnnn2)c2ccc(Cl)cc2F)nc1 (centres unmarked) [Compound 63, 1-(5-(But-2-yn-1-yloxy)pyridin-2-yl)-2-(4-chloro-2-fluorophenyl)-1,1-difluoro-3-(1H-tetrazol-1-yl)propan-2-ol]
≤ 0.5 µg/mL | OC(Cn1cnnn1)(c1ccc(F)cc1F)C(F)(F)c1ccc(OCc2ccc(OCC(F)(F)F)cc2)cn1 (centres unmarked) [Compound 20, 2-(2,4-Difluorophenyl)-1,1-difluoro-3-(1H-tetrazol-1-yl)-1-(5-((4-(2,2,2-trifluoroethoxy)benzyl)oxy)pyridin-2-yl)propan-2-ol]
1.5 to 4 µg/mL (≈ 3.67 to 9.8 µM) | N#CCOc1ccc(C(F)(F)C(O)(Cn2cnnn2)c2ccc(F)cc2F)nc1 (centres unmarked) [Compound 29, 2-((6-(2-(2,4-Difluorophenyl)-1,1-difluoro-2-hydroxy-3-(1H-tetrazol-1-yl)propyl)pyridin-3-yl)oxy)acetonitrile]
1.5 to 4 µg/mL (≈ 3.08 to 8.22 µM) | N#Cc1ccc(Oc2ccc(C(F)(F)C(O)(Cn3ncnn3)c3ccc(Cl)cc3F)nc2)cc1 (centres unmarked) [Compound 80, 4-((6-(2-(4-Chloro-2-fluorophenyl)-1,1-difluoro-2-hydroxy-3-(2H-tetrazol-2-yl)propyl)pyridin-3-yl)oxy)benzonitrile]
0.5 to 1.5 µg/mL (≈ 1.05 to 3.14 µM) | OC(Cn1cnnn1)(c1ccc(F)cc1F)C(F)(F)c1ccc(OCc2ccc(F)cc2)cn1 (centres unmarked) [Compound 19, 2-(2,4-Difluorophenyl)-1,1-difluoro-1-(5-((4-fluorobenzyl)oxy)pyridin-2-yl)-3-(1H-tetrazol-1-yl)propan-2-ol]
1.5 to 4 µg/mL (≈ 2.89 to 7.71 µM) | N#Cc1ccc(CSc2ccc(C(F)(F)C(O)(Cn3ncnn3)c3ccc(F)cc3F)nc2)c(F)c1 (centres unmarked) [Compound 16, 4-(((6-(2-(2,4-Difluorophenyl)-1,1-difluoro-2-hydroxy-3-(2H-tetrazol-2-yl)propyl)pyridin-3-yl)thio)methyl)-3-fluorobenzonitrile]
≤ 0.5 µg/mL | OC(Cn1cnnn1)(c1ccc(F)cc1F)C(F)(F)c1ccc(Oc2ccc(C(F)(F)F)nc2)cn1 (centres unmarked) [Compound 111, 2-(2,4-difluorophenyl)-1,1-difluoro-3-(1H-tetrazol-1-yl)-1-(5-((6-(trifluoromethyl)pyridin-3-yl)oxy)pyridin-2-yl)propan-2-ol]
> 4 µg/mL | OC(Cn1ncnn1)(c1ccc(F)cc1F)C(F)(F)c1ccc(OCC2CC2)cn1 (centres unmarked) [Compound 40, 1-(5-(Cyclopropylmethoxy)pyridin-2-yl)-2-(2,4-difluorophenyl)-1,1-difluoro-3-(2H-tetrazol-2-yl)propan-2-ol]
> 4 µg/mL | OC(Cn1ncnn1)(c1ccc(Cl)cc1F)C(F)(F)c1ccc(OCC(F)(F)F)cn1 (centres unmarked) [Compound 72, 2-(4-Chloro-2-fluorophenyl)-1,1-difluoro-3-(2H-tetrazol-2-yl)-1-(5-(2,2,2-trifluoroethoxy)pyridin-2-yl)propan-2-ol]
1.5 to 4 µg/mL (≈ 2.99 to 7.96 µM) | N#Cc1cccc(COc2ccc(C(F)(F)C(O)(Cn3ncnn3)c3ccc(F)cc3F)nc2)c1F (centres unmarked) [Compound 68, 3-(((6-(2-(2,4-Difluorophenyl)-1,1-difluoro-2-hydroxy-3-(2H-tetrazol-2-yl)propyl)pyridin-3-yl)oxy)methyl)-2-fluorobenzonitrile]
≤ 0.5 µg/mL | OC(Cn1cnnn1)(c1ccc(F)cc1F)C(F)(F)c1ccc(OCc2cccc(OCC(F)(F)F)c2)cn1 (centres unmarked) [Compound 25, 2-(2,4-Difluorophenyl)-1,1-difluoro-3-(1H-tetrazol-1-yl)-1-(5-((3-(2,2,2-trifluoroethoxy)benzyl)oxy)pyridin-2-yl)propan-2-ol]
0.5 to 1.5 µg/mL (≈ 1.01 to 3.03 µM) | OC(Cn1cnnn1)(c1ccc(F)cc1F)C(F)(F)c1cc(OCc2ccc(F)cc2F)ccn1 (centres unmarked) [Compound 13, 1-(4-((2,4-Difluorobenzyl)oxy)pyridin-2-yl)-2-(2,4-difluorophenyl)-1,1-difluoro-3-(1H-tetrazol-1-yl)propan-2-ol]
> 4 µg/mL | N#Cc1ccc(COc2ccc(C(F)(F)C(O)(Cn3ncnn3)c3ccc(F)cc3F)nc2)s1 (centres unmarked) [Compound 74, 5-(((6-(2-(2,4-Difluorophenyl)-1,1-difluoro-2-hydroxy-3-(2H-tetrazol-2-yl)propyl)pyridin-3-yl)oxy)methyl)thiophene-2-carbonitrile]
> 4 µg/mL | CC#CCOc1ccc(C(F)(F)C(O)(Cn2ncnn2)c2ccc(Cl)cc2F)nc1 (centres unmarked) [Compound 64, 1-(5-(But-2-yn-1-yloxy)pyridin-2-yl)-2-(4-chloro-2-fluorophenyl)-1,1-difluoro-3-(2H-tetrazol-2-yl)propan-2-ol]
> 4 µg/mL | OC(Cn1ncnn1)(c1ccc(F)cc1F)C(F)(F)c1ccc(OCc2cc(F)cc(F)c2)cn1 (centres unmarked) [Compound 36, 1-(5-((3,5-Difluorobenzyl)oxy)pyridin-2-yl)-2-(2,4-difluorophenyl)-1,1-difluoro-3-(2H-tetrazol-2-yl)propan-2-ol]
1.5 to 4 µg/mL (≈ 3.21 to 8.56 µM) | OC(Cn1cnnn1)(c1ccc(F)cc1F)C(F)(F)c1ccc(SCC(F)(F)F)cn1 (centres unmarked) [Compound 18, 2-(2,4-Difluorophenyl)-1,1-difluoro-3-(1H-tetrazol-1-yl)-1-(5-((2,2,2-trifluoroethyl)thio)pyridin-2-yl)propan-2-ol]
> 4 µg/mL | OC(Cn1ncnn1)(c1ccc(F)cc1F)C(F)(F)c1ccc(OCc2ccccn2)cn1 (centres unmarked) [Compound 38, 2-(2,4-Difluorophenyl)-1,1-difluoro-1-(5-(pyridin-2-ylmethoxy)pyridin-2-yl)-3-(2H-tetrazol-2-yl)propan-2-ol]
≤ 0.5 µg/mL | OC(Cn1cnnn1)(c1ccc(F)cc1F)C(F)(F)c1ccc(OCc2ccc(Cl)cc2)cn1 (centres unmarked) [Compound 4, 1-(5-(4-Chlorobenzyloxy)pyridin-2-yl)-2-(2,4-difluorophenyl)-1,1-difluoro-3-(1H-tetrazol-1-yl)propan-2-ol]
1.5 to 4 µg/mL (≈ 3.02 to 8.06 µM) | OC(Cn1cnnn1)(c1ccc(F)cc1F)C(F)(F)c1ccc(OCc2ncc(F)cc2F)cn1 (centres unmarked) [Compound 60, 2-(2,4-Difluorophenyl)-1-(5-((3,5-difluoropyridin-2-yl)methoxy)pyridin-2-yl)-1,1-difluoro-3-(1H-tetrazol-1-yl)propan-2-ol]
≤ 0.5 µg/mL | OC(Cn1cnnn1)(c1ccc(F)cc1F)C(F)(F)c1ccc(Oc2nc3ccc(Cl)cc3s2)cn1 (centres unmarked) [Compound 110, 1-(5-((6-chlorobenzo[d]thiazol-2-yl)oxy)pyridin-2-yl)-2-(2,4-difluorophenyl)-1,1-difluoro-3-(1H-tetrazol-1-yl)propan-2-ol]
1.5 to 4 µg/mL (≈ 3.03 to 8.09 µM) | OC(Cn1ccnn1)(c1ccc(F)cc1F)C(F)(F)c1ccc(OCc2cccc(F)c2F)cn1 (centres unmarked) [Compound 44, 1-(5-((2,3-Difluorobenzyl)oxy)pyridin-2-yl)-2-(2,4-difluorophenyl)-1,1-difluoro-3-(1H-1,2,3-triazol-1-yl)propan-2-ol]
1.5 to 4 µg/mL (≈ 2.99 to 7.97 µM) | N#Cc1ccc(COc2ccc(C(F)(F)C(O)(Cn3ncnn3)c3ccc(Cl)cc3F)nc2)nc1 (centres unmarked) [Compound 62, 6-(((6-(2-(4-Chloro-2-fluorophenyl)-1,1-difluoro-2-hydroxy-3-(2H-tetrazol-2-yl)propyl)pyridin-3-yl)oxy)methyl)nicotinonitrile]
0.5 to 1.5 µg/mL (≈ 1.07 to 3.22 µM) | CC(Oc1ccc(C(F)(F)C(O)(Cn2ncnn2)c2ccc(F)cc2F)nc1)C(F)(F)F (centres unmarked) [Compound 48, 2-(2,4-Difluorophenyl)-1,1-difluoro-3-(2H-tetrazol-2-yl)-1-(5-((1,1,1-trifluoropropan-2-yl)oxy)pyridin-2-yl)propan-2-ol]

SMILES | MIC
CC(C)COc1ccc(C(F)(F)C(O)(Cn2ncnn2)c2ccc(Cl)cc2F)nc1 (centres unmarked) [Compound 70, 2-(4-Chloro-2-fluorophenyl)-1,1-difluoro-1-(5-isobutoxypyridin-2-yl)-3-(2H-tetrazol-2-yl)propan-2-ol] | > 4 µg/mL
